Conditions: Liquid, Bellows volumetry

CC1CCCCC1 [methylcyclohexane]
mass density [kg/m3]
Conditions	410 K	450 K	500 K	550 K	600 K
10000 kPa	680.503	645.737	595.224	537.032	–
12000 kPa	–	–	–	–	485.331
20000 kPa	695.044	664.914	623.145	579.029	532.582
30000 kPa	707.272	680.595	643.213	605.816	567.711
40000 kPa	717.821	693.215	659.481	626.206	592.364
50000 kPa	727.698	704.34	672.946	642.447	611.576
60000 kPa	736.124	714.464	684.828	656.179	627.511
70000 kPa	743.853	723.281	695.54	668.08	641.114
80000 kPa	750.846	731.598	704.872	678.738	653.239
90000 kPa	757.777	739.304	713.602	688.637	664.012
100000 kPa	764.111	746.296	721.454	697.29	673.632
120000 kPa	776.018	759.037	735.845	713.086	690.895
140000 kPa	786.383	770.433	748.645	726.911	705.698
160000 kPa	795.899	780.708	759.878	739.33	718.93
180000 kPa	804.482	790.183	770.353	750.159	730.911
200000 kPa	812.647	798.897	779.786	760.464	741.384

Source: the NIST ThermoML archive (doi:10.1007/s10765-017-2241-7)
